Results from patent US12708630B2, “Combined therapy of 4′-thio-5-aza-2′-deoxycytidine and Venetoclax” (PINOTBIO, INC., priority 2021, dated 2026).
pIC50: −log10 of the molar value.

Key:
Experiment in all cases: drug activity profiling cytotoxicity
Type in all cases: cell-based
ARH-77 = conditions: Homo sapiens; ARH-77 cell line, B-cell lymphoma; read-out: Aza-T-dCyd IC50
Outline: (§1)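 Screening covered 200 lines; each was tested for Aza-T-dCyd-induced cytotoxicity.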

SK-UT-1 = conditions: Homo sapiens; SK-UT-1 cell line, Sarcoma; read-out: Aza-T-dCyd IC50
Outline: as §1

NTERA-2 cl.D1 = conditions: Homo sapiens; NTERA-2 cl.D1 cell line, Testis; read-out: Aza-T-dCyd IC50
Outline: as §1

786-O = conditions: Homo sapiens, 786-0; 786-O cell line, Kidney; read-out: Aza-T-dCyd IC50
Outline: as §1

J-RT3-T3-5 = conditions: Homo sapiens; J-RT3-T3-5 cell line, T-cell Lymphoma; read-out: Aza-T-dCyd IC50
Outline: as §1

MOLT-4 = conditions: Homo sapiens; MOLT-4 cell line, ALL; read-out: Aza-T-dCyd IC50
Outline: as §1

PFSK-1 = conditions: Homo sapiens; PFSK-1 cell line, CNS (Glioma); read-out: Aza-T-dCyd IC50
Outline: as §1

A172 = conditions: Homo sapiens, A 172; A172 cell line, CNS (Glioma); read-out: Aza-T-dCyd IC50
Outline: as §1

JAR = JAR cell line, Placenta; read-out: Aza-T-dCyd IC50
Outline: as §1

BV-173 = conditions: Homo sapiens; BV-173 cell line, CML; read-out: Aza-T-dCyd IC50
Outline: as §1

RPMI-7951 = conditions: Homo sapiens; RPMI-7951 cell line, Skin (Melanoma); read-out: Aza-T-dCyd IC50
Outline: as §1

HT-29 = conditions: Homo sapiens; HT-29 cell line, Colon; read-out: Aza-T-dCyd IC50
Outline: as §1

SK-PN-DW = SK-PN-DW cell line, Sarcoma; read-out: Aza-T-dCyd IC50
Outline: as §1

HuP-T4 = conditions: Homo sapiens; HuP-T4 cell line, Pancreas; read-out: Aza-T-dCyd IC50
Outline: as §1

SKMES1 = conditions: Homo sapiens, SK-MES-1; SKMES1 cell line, Lung (NSCLC); read-out: Aza-T-dCyd IC50
Outline: as §1

SK-N-FI = conditions: Homo sapiens; SK-N-FI cell line, CNS (Neuroblastoma); read-out: Aza-T-dCyd IC50
Outline: as §1

SH-4 = conditions: Homo sapiens; SH-4 cell line, Skin (Melanoma); read-out: Aza-T-dCyd IC50
Outline: as §1

SK-BR-3 = conditions: Homo sapiens; SK-BR-3 cell line, Breast; read-out: Aza-T-dCyd IC50
Outline: as §1

Daudi = conditions: Homo sapiens; Daudi cell line, Burkitt's lymphoma; read-out: Aza-T-dCyd IC50
Outline: as §1

HL-60 = conditions: Homo sapiens; HL-60 cell line, AML; read-out: Aza-T-dCyd IC50
Outline: as §1

TCCSUP = conditions: Homo sapiens, TCC-SUP; TCCSUP cell line, Bladder; read-out: Aza-T-dCyd IC50
Outline: as §1

ZR-75-1 = conditions: Homo sapiens; ZR-75-1 cell line, Breast; read-out: Aza-T-dCyd IC50
Outline: as §1

SNB-19 = conditions: Homo sapiens; SNB-19 cell line, CNS (Glioma); read-out: Aza-T-dCyd IC50
Outline: as §1

ACHN = conditions: Homo sapiens; ACHN cell line, Kidney; read-out: Aza-T-dCyd IC50
Outline: as §1

Mia PaCa-2 = conditions: Homo sapiens; Mia PaCa-2 cell line, Pancreas; read-out: Aza-T-dCyd IC50
Outline: as §1

BM-1604 = BM-1604 cell line, Prostate; read-out: Aza-T-dCyd IC50
Outline: as §1

H9 = conditions: Homo sapiens; H9 cell line, T-cell Lymphoma; read-out: Aza-T-dCyd IC50
Outline: as §1

COR-L23 = conditions: Homo sapiens; COR-L23 cell line, Lung (NSCLC); read-out: Aza-T-dCyd IC50
Outline: as §1

Daoy = conditions: Homo sapiens; Daoy cell line, CNS (Medulloblastoma); read-out: Aza-T-dCyd IC50
Outline: as §1

769-P = conditions: Homo sapiens; 769-P cell line, Kidney; read-out: Aza-T-dCyd IC50
Outline: as §1

Hs 688(A).T = Hs 688(A).T cell line, Skin (Melanoma); read-out: Aza-T-dCyd IC50
Outline: as §1

`Nc1ncn([C@H]2CC(O)[C@@H](CO)S2)c(=O)n1` (stereo partly shown) [Aza-T-dCyd, 4′-thio-5-aza-2′-deoxycytidine] showed a pIC50 (ARH-77) of 6.38, a pIC50 (SK-UT-1) of 6.46 and a pIC50 (NTERA-2 cl.D1) of 7.37. The pIC50 (786-O) was 6.60, the pIC50 (J-RT3-T3-5) was 6.97 and the pIC50 (MOLT-4) was 7.46. For the same compound, the pIC50 (PFSK-1) was 5.12, the pIC50 (A172) was < 5.00 and the pIC50 (JAR) was 6.53. It also gave a pIC50 (BV-173) of 8.27, a pIC50 (RPMI-7951) of 6.28 and a pIC50 (HT-29) of 6.49. It also gave a pIC50 (SK-PN-DW) of 6.07, a pIC50 (HuP-T4) of 6.49 and a pIC50 (SKMES1) of 6.50. For the same compound, the pIC50 (SK-N-FI) was 5.57, the pIC50 (SH-4) was 6.16 and the pIC50 (SK-BR-3) was 5.03. The pIC50 (Daudi) was 6.35, the pIC50 (HL-60) was 6.29 and the pIC50 (TCCSUP) was 5.93. For the same compound, the pIC50 (ZR-75-1) was < 5.00, the pIC50 (SNB-19) was 6.77 and the pIC50 (ACHN) was 6.64. For the same compound, the pIC50 (Mia PaCa-2) was 6.06, the pIC50 (BM-1604) was 5.36 and the pIC50 (H9) was 6.33. It also gave a pIC50 (COR-L23) of 7.03, a pIC50 (Daoy) of 5.44 and a pIC50 (769-P) of 7.18. For the same compound, the pIC50 (Hs 688(A).T) was < 5.00.
